Read-outs that look alike come from different tables or passages of the source.
Tests used:
[1] = tested on: MiaPaca-2 pancreatic tumor xenograft; test: Human pancreatic tumor xenograft in nude mice; format: in vivo; conditions: MiaPaca-2 xenograft
Procedure: Cortexolone 17α-benzoate and Cyproterone Acetate were separately diluted in DMSO/2-hydroxypropyl β-cyclodextrin (vehicle).
The test was carried out comparing the anti-tumor activity of cortexolone 17α-benzoate at two different dosages (8.0 mg/kg, corresponding approximately at 230 μM, and 40 mg/kg, corresponding approximately at 1150 μM), versus the vehicle (i.e. 0.4% (v/v) tween 80 and 0.5% (w/v) carboxymethylcellulose in normal saline) and versus the comparator Cyproterone Acetate at two different dosages (7.4 mg/kg and 37 mg/kg).
1×10^6 MiaPaca-2 cells suspended in matrigel were sub-cutaneously injected into 6 week old athymic nude mice.
The treatment with the tested compounds, with the vehicle and with the comparative compound, was initiated after the tumor volume has reached 50 mm^3 after transplantation. All compounds were injected 100 μL/mouse of low dose solution (approximately 230 μM) or 100 μL/mouse of high dose solution (approximately 1150 μM) of cortexolone 17α-benzoate, vehicle and Cyproterone Acetate, respectively. Compounds and controls were administered subcutaneously daily for 28 days.
Tumors were measured every 4 days with a digital caliper.
The results are plotted in FIG. 1 as average change in tumor volume relative to the start of treatment. Tumor volume was calculated according to the formula 0.5236(r1)^2(r2) where r1<r2.
Error bars are the SEM for 7 to 10 mice per treatment group. P values were calculated according to the Student's t test.
Cortexolone 17α-valerate-21-propionate and Cyproterone Acetate were separately diluted in DMSO/2-hydroxypropyl β-cyclodextrin (vehicle).
The test was carried out comparing the anti-tumor activity of cortexolone 17α-valerate-21-propionate at two different dosages (approximately 8.6 mg/kg and 43 mg/kg) versus the vehicle (i.e. 0.4% (v/v) tween 80 and 0.5% (w/v) carboxymethylcellulose in normal saline) and versus the comparator Cyproterone Acetate at two different dosages (7.4 mg/kg and 37 mg/kg).
1×10^6 MiaPaca-2 cells suspended in matrigel were subcutaneously injected into 6 week old athymic nude mice.
The treatment with the tested compound, with the vehicle and with the comparative compound was initiated after the tumor has reached a volume of 50 mm^3 after implantation, injecting subcutaneously 100 μL/mouse of low dose solution (approximately 230 μM) or 100 μL/mouse of high dose solution (approximately 1150 μM) of cortexolone 17α-valerate-21-propionate, vehicle and Cyproterone Acetate, respectively. Compounds and controls were administered subcutaneously daily for 28 days. Tumors were measured every 4 days with a digital caliper.
The results are plotted in FIG. 2 as average change in tumor volume relative to the start of treatment. Tumor volume was calculated according to the formula 0.5236(r1)^2(r2) where r1<r2.
Cyproterone acetate (CPA), a well-known anti-androgen, was used as control. Briefly 1×10^6 MiaPaca2 cells suspended in matrigel were subcutaneously (sc) injected into 6 week old male athymic nude mice. Tumors were measured every 4 days with a digital caliper. Tumor volume was calculated according to the formula: 0.5236(r1)2(r2) where r1<r2. Treatment with CB-03-06 and control compounds were initiated after the tumor had reached 50 mm^3. Compounds diluted in DMSO/2-hydroxypropyl b-cyclodextrin (vehicle) were subcutaneously injected daily (100 microL/mouse) at the concentration of 40 mg/Kg daily for 28 consecutive days.

MiaPaca2 (AR low) = test: ATP-dependent proliferation assay with 10 nM DHT, pancreatic cancer cells (Examples 3, 4, 7); conditions: for TI on Resting PBMC: IC50 resting PBMC / IC50 MiaPaca2; for TI on Stimulated PBMC: IC50 stimulated PBMC / IC50 MiaPaca2; for IC50: MiaPaca2
Procedure: (§1) The experimental method consisted of: • 1. […] After 24 hrs, 10 nM DHT (dihydrotestosterone) with or without anti-androgen compounds, or DMSO vehicle (negative control) was added to the cultures. • 3.
(§2) Data from Experiment 1 were fitted through sigmoidal dose response curves and analyzed using Prizm statistical analysis software. […] The results from 2 sets of experiments follow.
(§3) Data from Experiment 1 was fitted through sigmoidal dose response curves and analyzed using Prizm statistical analysis software.

Panc1 (AR+) = test: as above; conditions: for TI on Resting PBMC: IC50 resting PBMC / IC50 Panc1; for TI on Stimulated PBMC: IC50 stimulated PBMC / IC50 Panc1; for IC50: Panc1
Procedure: as §1, §2, §3

BxPC3 = test: In vitro proliferation, larger panel (Example 14); conditions: BxPC3
Description: (§4) Data shown in Table I were fitted through sigmoidal dose response curves and analyzed using Prizm statistical.

MCF7 = test: In vitro proliferation / cytotoxic assay on breast cancer cells (Examples 14, 25); conditions: MCF7
Procedure: as §4
For the cytotoxic assay, cells were seeded in 96-well flat bottom culture plates in media containing charcoal stripped serum. After 24 hours, test compounds were added to the cells. DMSO was used as the vehicle negative control and RU486 as the positive control. After 72 hour incubation, cells were harvested and lysed to determine cell viability using the Cell Titer Glow assay.

stimulated PBMC = test: IC50 on stimulated (actively dividing) PBMC; format: cell-based, human; conditions: PBMC Stim; Table IV
PC3 = test: ATP-dependent cell viability assay (Cell Titer Glo), Example 12; conditions: PC3
Description: as §4

HT29 = test: MTT colorimetric assay on epithelial intestinal cancer cells; format: cell-based; conditions: for Therapeutic Index (TI), Resting PBMC: IC50 resting PBMC / IC50 HT29; for Therapeutic Index (TI), Stimulated PBMC: IC50 stimulated PBMC / IC50 HT29
Procedure: The experiment was performed to test and define anticancer activity in vitro of Cortexolone 17α-benzoate and cortexolone 17α-valerate, 21-propionate on cell lines representatives of epithelial intestinal tumours, namely HT29. The experiment method consisted in: • 1. Monolayer HT-29 cells were plated in: 96-wells plates at the density of 2×10^4 cells/mL. The cells plated were kept at 37° C. in 5% CO2 and left to attach for 24 h. • 2. […] After 72 h of treatment, the MTT colorimetric assay was performed.

[2] = Experiment 1, 0 = higher toxicity in PBMC
[3] = Experiment 1, sigmoidal dose response fit, 10 nM DHT, 3 days
[4] = Experiment 2, nonlinear regression least squares fit, additional experiments
[5] = read-out: In vitro proliferation IC50, Table IV

CCCCC(=O)O[C@]1(C(=O)COC(=O)CC)CC[C@H]2[C@@H]3CCC4=CC(=O)CC[C@]4(C)[C@H]3CC[C@@]21C [CB-03-10, cortexolone 17α-valerate-21-propionate]
pancreatic tumor size relative to the initial tumor size ([1]; Example 6, nude mice, SC daily 28 days, for the time of treatment): less than 5 fold | in vivo antitumor activity compared with Cyproterone Acetate ([1]; Examples 5 and 6): antitumor activity higher than Cyproterone Acetate | TI on Resting PBMC (MiaPaca2 (AR low); [2]): 3 | TI on Resting PBMC (MiaPaca2 (AR low); Experiment 2): 3 | TI on Stimulated PBMC (MiaPaca2 (AR low); [2]): 3 | TI on Stimulated PBMC (MiaPaca2 (AR low); Experiment 2): 3 | IC50 (MiaPaca2 (AR low); Example 7, Experiment 1): 34 µM | IC50 (MiaPaca2 (AR low); Example 7, Experiment 2): 37 µM | IC50 (MiaPaca2 (AR low); [3]): 43 µM | IC50 (MiaPaca2 (AR low); [4]): 37 µM | TI on Resting PBMC (Panc1 (AR+); [2]): 2 | TI on Resting PBMC (Panc1 (AR+); Experiment 2): 2 | TI on Stimulated PBMC (Panc1 (AR+); [2]): 2 | TI on Stimulated PBMC (Panc1 (AR+); Experiment 2): 2 | IC50 (Panc1 (AR+); Example 7, Experiment 1): 68 µM | IC50 (Panc1 (AR+); Example 7, Experiment 2): 60 µM | IC50 (Panc1 (AR+); [3]): 66 µM | IC50 (Panc1 (AR+); [4]): 60 µM | Therapeutic Index = IC50 resting PBMC/IC50 cancer cell (BxPC3; Table IV): 3 | Therapeutic Index = IC50 stimulated PBMC/IC50 cancer cell (BxPC3; Table VII): 3 | IC50 (BxPC3; [5]): 30 µM | Therapeutic Index = IC50 resting PBMC/IC50 cancer cell (MCF7; Table IV): 3 | Therapeutic Index = IC50 stimulated PBMC/IC50 cancer cell (MCF7; Table VII): 3 | IC50 (MCF7; [5]): 28 µM | Therapeutic Index = IC50 resting PBMC/IC50 cancer cell (stimulated PBMC): 1 | Therapeutic Index = IC50 resting PBMC/IC50 cancer cell (PC3; Table IV): 2 | Therapeutic Index = IC50 stimulated PBMC/IC50 cancer cell (PC3; Table VII): 2 | IC50 (PC3; Tables I and II, titrated 3 uM to 200 uM, 3 days): 53 µM | IC50 (PC3; [5]): 53 µM | Inhibition (%) on HT29 (HT29; 0.8 micromolar, 72 h): 0.44% | Inhibition (%) on HT29 (HT29; 4 micromolar, 72 h): 14.23% | Inhibition (%) on HT29 (HT29; 20 micromolar, 72 h): 25.49% | Inhibition (%) on HT29 (HT29; 100 micromolar, 72 h): 89.77% | Inhibition (%) on HT29 (HT29; 500 micromolar, 72 h): 92.10% | IC50 (HT29; HT29, MTT, 72 h, read-out: IC50 Calculated): 34.2 µM | Therapeutic Index = IC50 resting PBMC/IC50 cancer cell (HT29; HT29, Table IV): 3 | IC50 (HT29; HT29, Table IV, read-out: In vitro proliferation IC50): 34 µM | Therapeutic Index = IC50 stimulated PBMC/IC50 cancer cell (HT29; HT29, Table VII): 3 | Therapeutic Index (TI), Resting PBMC (HT29; Experiment 1): 3 | Therapeutic Index (TI), Resting PBMC (HT29; Experiment 2): 4 | Therapeutic Index (TI), Stimulated PBMC (HT29; Experiment 1): 3 | Therapeutic Index (TI), Stimulated PBMC (HT29; Experiment 2): 3

Reference: patent US10231980B2, “Cortexolone 17alpha-benzoate for use in the treatment of tumours” (COSMO TECHNOLOGIES LTD., priority 2014, dated 2019)
